Measured values from ChEMBL document CHEMBL4819035, “C-2-Linked Dimeric Strychnine Analogues as Bivalent Ligands Targeting Glycine Receptors” (J Nat Prod, 2021).

What was measured:
[1] = target: Glycine receptor (alpha-1/beta) (Homo sapiens, UniProt P23415+P48167); test: Antagonist activity at human glycine receptor subunit alpha-1beta expressed in human tsA201 cells assessed as reduction in glycine-induced response incubated for 30 mins by fluorescence-based FLIPR membrane potential blue assay; format: cell-based; conditions: for pIC50: tsa201
[2] = target: T1, Glycine receptor subunit alpha-1 (Homo sapiens, UniProt P23415); test: Antagonist activity at human glycine receptor subunit alpha-1 expressed in HEK293 cells assessed as reduction in glycine-induced currents by whole-cell patch-clamp assay; format: cell-based
T1 sequence (P23415 whole entry): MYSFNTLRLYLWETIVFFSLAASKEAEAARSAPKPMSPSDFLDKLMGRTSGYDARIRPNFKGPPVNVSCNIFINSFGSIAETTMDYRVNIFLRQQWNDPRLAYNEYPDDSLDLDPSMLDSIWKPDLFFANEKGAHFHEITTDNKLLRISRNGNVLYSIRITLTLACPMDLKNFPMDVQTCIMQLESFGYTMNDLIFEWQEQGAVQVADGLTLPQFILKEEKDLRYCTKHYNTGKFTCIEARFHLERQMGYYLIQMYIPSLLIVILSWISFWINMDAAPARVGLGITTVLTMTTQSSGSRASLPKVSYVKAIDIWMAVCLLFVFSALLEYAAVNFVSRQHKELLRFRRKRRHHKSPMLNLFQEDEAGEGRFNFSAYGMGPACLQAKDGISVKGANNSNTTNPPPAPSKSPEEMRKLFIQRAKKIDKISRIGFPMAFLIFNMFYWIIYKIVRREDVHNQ

[3] = target: T1, Glycine receptor subunit alpha-1; test: Antagonist activity at human glycine receptor subunit alpha-1 expressed in human tsA201 cells assessed as reduction in glycine-induced response incubated for 30 mins by fluorescence-based FLIPR membrane potential blue assay; format: cell-based
[4] = target: T1, Glycine receptor subunit alpha-1; test: Antagonist activity at human glycine receptor subunit alpha-1 assessed as inhibition of glycine-induced current measured at the later state of compound application by patch-clamp assay
[5] = target: T1, Glycine receptor subunit alpha-1; test: Antagonist activity at human glycine receptor subunit alpha-1 assessed as inhibition of glycine-induced current measured at the onset of compound application by patch-clamp assay
[6] = target: T1, Glycine receptor subunit alpha-1; test: Displacement of [3H]strychnine from human glycine receptor subunit alpha-1 expressed in HEK293 cell membranes preincubated for 30 mins followed by [3H]strychnine addition and measured after 30 mins by liquid scintillation counting method; parameters: species or system Membrane

Glycine receptor (alpha-1/beta), sequence (P48167 whole entry, one chain of several): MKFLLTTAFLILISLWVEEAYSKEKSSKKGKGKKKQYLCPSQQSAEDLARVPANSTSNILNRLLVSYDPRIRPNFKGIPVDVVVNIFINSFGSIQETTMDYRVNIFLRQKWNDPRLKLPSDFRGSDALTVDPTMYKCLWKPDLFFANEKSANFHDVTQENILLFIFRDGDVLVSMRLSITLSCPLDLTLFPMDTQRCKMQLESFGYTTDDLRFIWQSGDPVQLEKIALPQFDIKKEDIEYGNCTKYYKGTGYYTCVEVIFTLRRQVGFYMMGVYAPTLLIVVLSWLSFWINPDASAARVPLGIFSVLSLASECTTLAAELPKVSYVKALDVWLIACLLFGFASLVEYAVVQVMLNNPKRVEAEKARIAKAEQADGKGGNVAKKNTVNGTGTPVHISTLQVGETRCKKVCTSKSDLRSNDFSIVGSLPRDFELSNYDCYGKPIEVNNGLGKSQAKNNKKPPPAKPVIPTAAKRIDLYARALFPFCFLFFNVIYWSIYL

How did the IC50 ([1]; read-out: IC50) turn out when `O=C(CCCCCCCC(=O)NCC(=O)Nc1ccc2c(c1)[C@@]13CCN4CC5=CCO[C@H]6CC(=O)N2[C@H]1[C@H]6[C@H]5C[C@H]43)NCC(=O)Nc1ccc2c(c1)[C@@]13CCN4CC5=CCO[C@H]6CC(=O)N2[C@H]1[C@H]6[C@H]5C[C@H]43` was run?
The IC50 was 1700 nM.

What about the IC50 [2] of the same compound?
Its IC50 is 400 nM.

And the IC50 ([3]; read-out: IC50)?
The IC50 was 2100 nM.

Which results are given for `CCCCCCCC(=O)NCC(=O)Nc1ccc2c(c1)[C@@]13CCN4CC5=CCO[C@H]6CC(=O)N2[C@H]1[C@H]6[C@H]5C[C@H]43`?
IC50 ([1]; read-out: IC50): 510 nM; IC50 [2]: 90 nM; IC50 ([3]; read-out: IC50): 780 nM

How did the IC50 ([1]; read-out: IC50) turn out when `CCCCCCCC(=O)NCCCCCCCCCCC(=O)Nc1ccc2c(c1)[C@@]13CCN4CC5=CCO[C@H]6CC(=O)N2[C@H]1[C@H]6[C@H]5C[C@H]43` was run?
Its IC50 is 5800 nM.

And the IC50 [2]?
Its IC50 is 1700 nM.

What about the IC50 ([3]; read-out: IC50) of the same compound?
Its IC50 is 10000 nM.

`O=C(CCCCCCC(=O)NCC(=O)Nc1ccc2c(c1)[C@@]13CCN4CC5=CCO[C@H]6CC(=O)N2[C@H]1[C@H]6[C@H]5C[C@H]43)NCC(=O)Nc1ccc2c(c1)[C@@]13CCN4CC5=CCO[C@H]6CC(=O)N2[C@H]1[C@H]6[C@H]5C[C@H]43` was tested. Which IC50 ([1]; read-out: IC50) did it give?
Its IC50 is 2400 nM.

What about the IC50 [2] of the same compound?
The IC50 was 170 nM.

What about the IC50 ([3]; read-out: IC50) of the same compound?
Its IC50 is 2800 nM.

For `O=C(CCCCCCCCCCCCCCC(=O)NCCCCC(=O)Nc1ccc2c(c1)[C@@]13CCN4CC5=CCO[C@H]6CC(=O)N2[C@H]1[C@H]6[C@H]5C[C@H]43)NCCCCC(=O)Nc1ccc2c(c1)[C@@]13CCN4CC5=CCO[C@H]6CC(=O)N2[C@H]1[C@H]6[C@H]5C[C@H]43`, which IC50 ([1]; read-out: IC50) is on record?
Its IC50 is 4100 nM.

What about the IC50 ([3]; read-out: IC50) of the same compound?
The IC50 was 7900 nM.

With `O=C(CCCCCC(=O)NCC(=O)Nc1ccc2c(c1)[C@@]13CCN4CC5=CCO[C@H]6CC(=O)N2[C@H]1[C@H]6[C@H]5C[C@H]43)NCC(=O)Nc1ccc2c(c1)[C@@]13CCN4CC5=CCO[C@H]6CC(=O)N2[C@H]1[C@H]6[C@H]5C[C@H]43` as the compound, how does the IC50 ([1]; read-out: IC50) read?
Its IC50 is 2200 nM.

And the IC50 [2]?
Its IC50 is 130 nM.

And the IC50 ([3]; read-out: IC50)?
The IC50 was 2800 nM.

What about the IC50 ([3]; read-out: pIC50 (converted)) of the same compound?
The IC50 was 2690 nM.

What does the source list for `O=C(CCCCCCCCCCCCCCCCCCCCC(=O)NCCCCCCCCCCC(=O)Nc1ccc2c(c1)[C@@]13CCN4CC5=CCO[C@H]6CC(=O)N2[C@H]1[C@H]6[C@H]5C[C@H]43)NCCCCCCCCCCC(=O)Nc1ccc2c(c1)[C@@]13CCN4CC5=CCO[C@H]6CC(=O)N2[C@H]1[C@H]6[C@H]5C[C@H]43`?
IC50 ([1]; read-out: IC50): > 10000 nM; pIC50 [1]: < 5; IC50 [2]: 2900 nM; IC50 ([3]; read-out: IC50): > 10000 nM; pIC50 ([3]; tsa201): < 5

What does the source list for `O=C(CCCCCCCCCCCCCCC(=O)NCCCCCCCCCCC(=O)Nc1ccc2c(c1)[C@@]13CCN4CC5=CCO[C@H]6CC(=O)N2[C@H]1[C@H]6[C@H]5C[C@H]43)NCCCCCCCCCCC(=O)Nc1ccc2c(c1)[C@@]13CCN4CC5=CCO[C@H]6CC(=O)N2[C@H]1[C@H]6[C@H]5C[C@H]43`?
IC50 ([1]; read-out: IC50): > 10000 nM; pIC50 [1]: < 5; IC50 ([3]; read-out: IC50): 10000 nM

How did the IC50 ([1]; read-out: IC50) turn out when `COCCOCCOCCOCCOCCOCCOCCOCCOCCOCCOCCOCCC(=O)NCCCCCCCCCCC(=O)Nc1ccc2c(c1)[C@@]13CCN4CC5=CCO[C@H]6CC(=O)N2[C@H]1[C@H]6[C@H]5C[C@H]43` was run?
Its IC50 is 10000 nM.

And the IC50 [4]?
The IC50 was 158 nM.

And the IC50 [5]?
Its IC50 is 5720 nM.

And the IC50 ([3]; read-out: IC50)?
Its IC50 is 20000 nM.

What about the Ki [6] of the same compound?
Its Ki is 977 nM.

For `O=C(CCCCCCCCCCCCC(=O)NCC(=O)Nc1ccc2c(c1)[C@@]13CCN4CC5=CCO[C@H]6CC(=O)N2[C@H]1[C@H]6[C@H]5C[C@H]43)NCC(=O)Nc1ccc2c(c1)[C@@]13CCN4CC5=CCO[C@H]6CC(=O)N2[C@H]1[C@H]6[C@H]5C[C@H]43`, which IC50 ([1]; read-out: IC50) is on record?
Its IC50 is 2000 nM.

And the IC50 ([3]; read-out: IC50)?
The IC50 was 1700 nM.

Which IC50 ([1]; read-out: IC50) does the source give for `O=C(CCC(=O)Nc1ccc2c(c1)[C@@]13CCN4CC5=CCO[C@H]6CC(=O)N2[C@H]1[C@H]6[C@H]5C[C@H]43)Nc1ccc2c(c1)[C@@]13CCN4CC5=CCO[C@H]6CC(=O)N2[C@H]1[C@H]6[C@H]5C[C@H]43` here?
The IC50 was 10000 nM.

And the IC50 ([3]; read-out: IC50)?
Its IC50 is 10000 nM.

Which IC50 ([1]; read-out: IC50) does the source give for `O=C(CCCCCCCCCCCCC(=O)Nc1ccc2c(c1)[C@@]13CCN4CC5=CCO[C@H]6CC(=O)N2[C@H]1[C@H]6[C@H]5C[C@H]43)Nc1ccc2c(c1)[C@@]13CCN4CC5=CCO[C@H]6CC(=O)N2[C@H]1[C@H]6[C@H]5C[C@H]43` here?
The IC50 was 210 nM.

And the IC50 ([3]; read-out: IC50)?
The IC50 was 430 nM.

For `O=C(CCCCCCCCCCCCCCC(=O)NCC(=O)Nc1ccc2c(c1)[C@@]13CCN4CC5=CCO[C@H]6CC(=O)N2[C@H]1[C@H]6[C@H]5C[C@H]43)NCC(=O)Nc1ccc2c(c1)[C@@]13CCN4CC5=CCO[C@H]6CC(=O)N2[C@H]1[C@H]6[C@H]5C[C@H]43`, which IC50 ([1]; read-out: IC50) is on record?
Its IC50 is 2200 nM.

What about the IC50 ([3]; read-out: IC50) of the same compound?
The IC50 was 3200 nM.

For `O=C(CCCCCCCCCCC(=O)NCC(=O)Nc1ccc2c(c1)[C@@]13CCN4CC5=CCO[C@H]6CC(=O)N2[C@H]1[C@H]6[C@H]5C[C@H]43)NCC(=O)Nc1ccc2c(c1)[C@@]13CCN4CC5=CCO[C@H]6CC(=O)N2[C@H]1[C@H]6[C@H]5C[C@H]43`, which IC50 ([1]; read-out: IC50) is on record?
Its IC50 is 1900 nM.

What about the IC50 [2] of the same compound?
Its IC50 is 100 nM.

What about the IC50 ([3]; read-out: IC50) of the same compound?
The IC50 was 2700 nM.

What does the source list for `CCCCCCCC(=O)Nc1ccc2c(c1)[C@@]13CCN4CC5=CCO[C@H]6CC(=O)N2[C@H]1[C@H]6[C@H]5C[C@H]43`?
IC50 ([1]; read-out: IC50): 680 nM; IC50 ([3]; read-out: IC50): 1200 nM

Which IC50 ([1]; read-out: IC50) does the source give for `O=C(CCCCCCCCC(=O)NCC(=O)Nc1ccc2c(c1)[C@@]13CCN4CC5=CCO[C@H]6CC(=O)N2[C@H]1[C@H]6[C@H]5C[C@H]43)NCC(=O)Nc1ccc2c(c1)[C@@]13CCN4CC5=CCO[C@H]6CC(=O)N2[C@H]1[C@H]6[C@H]5C[C@H]43` here?
Its IC50 is 880 nM.

What about the IC50 ([3]; read-out: IC50) of the same compound?
Its IC50 is 730 nM.

Which IC50 ([1]; read-out: IC50) does the source give for `O=C(CCCCC(=O)Nc1ccc2c(c1)[C@@]13CCN4CC5=CCO[C@H]6CC(=O)N2[C@H]1[C@H]6[C@H]5C[C@H]43)Nc1ccc2c(c1)[C@@]13CCN4CC5=CCO[C@H]6CC(=O)N2[C@H]1[C@H]6[C@H]5C[C@H]43` here?
Its IC50 is 10000 nM.

And the IC50 ([3]; read-out: IC50)?
The IC50 was 6100 nM.

For `O=C(CCCC(=O)Nc1ccc2c(c1)[C@@]13CCN4CC5=CCO[C@H]6CC(=O)N2[C@H]1[C@H]6[C@H]5C[C@H]43)Nc1ccc2c(c1)[C@@]13CCN4CC5=CCO[C@H]6CC(=O)N2[C@H]1[C@H]6[C@H]5C[C@H]43`, which IC50 ([1]; read-out: IC50) is on record?
Its IC50 is 30000 nM.

What about the IC50 ([3]; read-out: IC50) of the same compound?
Its IC50 is 10000 nM.

Which results are given for `O=C(CCCCCCC(=O)NCCCCCCCCCCC(=O)Nc1ccc2c(c1)[C@@]13CCN4CC5=CCO[C@H]6CC(=O)N2[C@H]1[C@H]6[C@H]5C[C@H]43)NCCCCCCCCCCC(=O)Nc1ccc2c(c1)[C@@]13CCN4CC5=CCO[C@H]6CC(=O)N2[C@H]1[C@H]6[C@H]5C[C@H]43`?
IC50 ([1]; read-out: IC50): 20000 nM; IC50 ([1]; read-out: pIC50 (converted)): 50100 nM; IC50 [2]: 1400 nM; IC50 ([3]; read-out: IC50): 30000 nM

`COCCOCCOCCOCCOCCOCCOCCOCCOCCOCCOCCOCCC(=O)NCCCCC(=O)Nc1ccc2c(c1)[C@@]13CCN4CC5=CCO[C@H]6CC(=O)N2[C@H]1[C@H]6[C@H]5C[C@H]43` was tested. Which IC50 ([1]; read-out: IC50) did it give?
Its IC50 is 10000 nM.

And the IC50 [4]?
The IC50 was 137 nM.

And the IC50 [5]?
The IC50 was 852 nM.

And the IC50 ([3]; read-out: IC50)?
The IC50 was 15000 nM.

And the Ki [6]?
The Ki was 436 nM.

`O=C(CCCCCCCCCCC(=O)NCCCCCCCCCCC(=O)Nc1ccc2c(c1)[C@@]13CCN4CC5=CCO[C@H]6CC(=O)N2[C@H]1[C@H]6[C@H]5C[C@H]43)NCCCCCCCCCCC(=O)Nc1ccc2c(c1)[C@@]13CCN4CC5=CCO[C@H]6CC(=O)N2[C@H]1[C@H]6[C@H]5C[C@H]43` was tested. Which IC50 ([1]; read-out: IC50) did it give?
The IC50 was 50000 nM.

What about the IC50 ([1]; read-out: pIC50 (converted)) of the same compound?
The IC50 was 31600 nM.

What about the IC50 [2] of the same compound?
The IC50 was 3100 nM.

And the IC50 ([3]; read-out: IC50)?
Its IC50 is 30000 nM.
